Test results as given in patent publication US20230107186A1, “COBICISTAT FOR PREVENTION AND/OR TREATMENT OF CORONAVIRUS INFECTIONS” (priority 2020, published 2023).
Where a SMILES comes first, the peptide text is derived from it. The star is where a group is joined. Cbz = O=C(OCc1ccccc1)*

Key:
SARS-CoV-2 S-protein = SARS-CoV-2 S-protein (Severe acute respiratory syndrome coronavirus 2, UniProt P0DTC2); assay: Syncytia formation assay in Vero E6 cells transfected with the S-protein; format: cell-based
SARS-CoV-2 [1] = format: cell-based; conditions: cobicistat 5-10 μM; MTT and crystal violet; Calu-3, T84, Vero E6
3CLpro = 3CLpro (Severe acute respiratory syndrome coronavirus 2, UniProt P0DTD1); assay: 3CLpro FRET assay; format: biochemical, SARS-CoV-2
[2] = mice, 50 mg/Kg; cited from earlier work
[3] = Viability of uninfected cell lines (MTT assay); format: cell-based, human; african green monkey; conditions: human (Calu-3, T84); African green monkey (Vero E6); uninfected Calu-3, T84, Vero E6; 48 h; MTT; read-out: half cytotoxic concentration (CC50) range
Procedure: (§1) D) Uninfected cell lines of lung (Calu-3), gut (T84) and kidney (Vero E6) origin were left untreated or treated with serial dilutions of cobicistat. Forty-eight hours post-treatment cellular viability was measured by MTT assay. Data, expressed as mean±SD of three independent experiments, were normalized to the untreated control and CC50 values were calculated by nonlinear regression.
(§2) Cell viability was evaluated by (3-[4,5-dimethylthiazol-2-yl]-2,5 diphenyl tetrazolium bromide) (MTT) assay and by crystal violet staining as previously described (Shytaj et al. 2020; Feoktistova, Geserick, and Leverkus 2016). Briefly, the MTT assay was conducted using the CellTiter 96® Non-Radioactive Cell Proliferation Assay (MTT) (Promega; Madison, Wis., USA). Cells were plated in a 96-well plate at a concentration of 3×10^6 cells/mL in 100 μl of medium. The MTT solution (15 μl) was added to each well and, after 2-4 h, the reaction was stopped by the addition of 100 μl of 10% SDS. Absorbance values were acquired using an Infinite 200 PRO (Tecan, Männedorf, Switzerland) multimode plate reader at 570 nm wavelength.
(§3) Data normality assumptions were tested by D'Agostino & Pearson normality test (for >3). […] Synergy scores were calculated using the SynergyFinder web-tool (Ianevski et al. 2020) using the Zero Interaction Potency (ZIP) model (Yadav et al. 2015).

[4] = test system: Calu-3, T84 and Vero E6 cells; assay: Viability of uninfected cell lines (MTT assay); format: cell-based, human; african green monkey; conditions: cobicistat 5-10 μM
Procedure: as §1, §2, §3

HIV-1 protease = HIV-1 protease (Human immunodeficiency virus type 1 group M subtype B, UniProt P04585); conditions: read-out: EC50 against the HIV-1 protease; selleckchem product page; cited from earlier work
SARS-CoV-2 [5] = assay: Inhibition of SARS-CoV-2 replication in cell lines (viral RNA by qPCR); format: cell-based
[6] = humans, standard dosing 150 mg/day; cited from earlier work

| Structure (SMILES) | concentration range with effect in syncytia assay (SARS-CoV-2 S-protein) [µM] | syncytia formation (SARS-CoV-2 S-protein; 24 h post transfection) | viability of infected cells (SARS-CoV-2 [1]) | effect on catalytic activity of 3CLpro (3CLpro) | plasma levels compared with in vitro IC50 and CC50 [2] | CC50 at 48 h [3] [µM] | tolerability by uninfected cells [4] | EC50 (HIV-1 protease) [µM] | viral RNA release in supernatant (SARS-CoV-2 [5]; Calu-3, Vero E6, T84, MOI 0.05 and 0.5, treated 2 h post-infection) | virus RNA amounts by qPCR, intracellular and supernatant (SARS-CoV-2 [5]; Calu-3 cells, time course, low micromolar concentrations) | IC50 (SARS-CoV-2 [5]; Severe acute respiratory syndrome coronavirus 2, 48 h, read-out: range of IC50 concentrations) [µM] | maximum plasma concentrations [6] |
| --- | --- | --- | --- | --- | --- | --- | --- | --- | --- | --- | --- | --- |
| CC(C)c1nc(CN(C)C(=O)N[C@@H](CCN2CCOCC2)C(=O)N[C@H](CC[C@H](Cc2ccccc2)NC(=O)OCc2cncs2)Cc2ccccc2)cs1 [Cobicistat, 1,3-thiazol-5-ylmethyl [(2R,5R)-5-{[(2S)-2-({[(2-isopropyl-1,3-thiazol-4-yl)methyl](methyl)carbamoyl}amino)-4-(morpholin-4-yl)butanoyl]amino}-1,6-diphenylhexan-2-yl]carbamate] | 5 to 10 | decreased syncytia formation | partially rescue viability of infected cells | inactive | clearly above all IC50 values calculated in our experiments, while remaining below the CC50 concentrations | 38.7 to 53 | well tolerated | > 30 | dose dependent effect in decreasing viral RNA release | dose dependent inhibitory effect | 0.58 to 8.76 | ≈ 1 μM |
| CC(C)C[C@@H](C=O)NC(=O)[C@H](CC(C)C)NC(=O)[C@H](CC(C)C)NC(=O)OCc1ccccc1 [MG-132] (Cbz-Leu-Leu-Leu-aldehyde) | – | – | – | potently reduced the catalytic activity | – | – | – | – | – | – | – | – |
